Test results taken from publication PMC5428509, “Irreversible inhibition of BTK kinase by a novel highly selective inhibitor CHMFL-BTK-11 suppresses inflammatory response in rheumatoid arthritis model” (Scientific Reports, 2017).

What was measured:
Assay in all cases: biochemical
Set-up in all cases: KinomeScan competition binding panel (DiscoveRx), percent of control at 1 uM
Settings in all cases: read-out: Percent Control
FLT3(D835H) = FLT3(D835H) (Homo sapiens, UniProt P36888, D835H)
Procedure, shortened: (§1)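 KinomeScan technology used to profile binding across a panel of 456 kinases and mutants.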

FLT3-autoinhibited = FLT3-autoinhibited (Homo sapiens, UniProt P36888)
Procedure, shortened: as §1

ARK5 = target: T1, ARK5 (Homo sapiens, UniProt O60285)
T1 construct: gene NUAK1
Procedure, shortened: as §1

MYO3A = MYO3A (Homo sapiens, UniProt Q8NEV4)
Procedure, shortened: as §1

MEK1 = target: T2, MEK1 (Homo sapiens, UniProt Q02750)
T2 construct: gene MAP2K1
Procedure, shortened: as §1

NEK3 = NEK3 (Homo sapiens, UniProt P51956)
Procedure, shortened: as §1

ERBB3 = ERBB3 (Homo sapiens, UniProt P21860)
Procedure, shortened: as §1

NEK1 = NEK1 (Homo sapiens, UniProt Q96PY6)
Procedure, shortened: as §1

ABL1-nonphosphorylated = target: T3, ABL1-nonphosphorylated (Homo sapiens, UniProt P00519)
T3 construct: nonphosphorylated
Procedure, shortened: as §1

PKAC-alpha = target: T4, PKAC-alpha (Homo sapiens, UniProt P17612)
T4 construct: gene PRKACA
Procedure, shortened: as §1

BRSK2 = BRSK2 (Homo sapiens, UniProt Q8IWQ3)
Procedure, shortened: as §1

PAK7 = target: T5, PAK7 (Homo sapiens, UniProt Q9P286)
T5 construct: gene PAK5
Procedure, shortened: as §1

ERBB4 = ERBB4 (Homo sapiens, UniProt Q15303)
Procedure, shortened: as §1

KIT(L576P) = KIT(L576P) (Homo sapiens, UniProt P10721, L576P)
Procedure, shortened: as §1

MYLK4 = MYLK4 (Homo sapiens, UniProt Q86YV6)
Procedure, shortened: as §1

FLT3(D835Y) = FLT3(D835Y) (Homo sapiens, UniProt P36888, D835Y)
Procedure, shortened: as §1

EPHB2 = EPHB2 (Homo sapiens, UniProt P29323)
Procedure, shortened: as §1

AURKC = AURKC (Homo sapiens, UniProt Q9UQB9)
Procedure, shortened: as §1

MAP4K4 = MAP4K4 (Homo sapiens, UniProt O95819)
Procedure, shortened: as §1

SGK = target: T6, SGK (Homo sapiens, UniProt O00141)
T6 construct: gene SGK1
Procedure, shortened: as §1

ADCK3 = target: T7, ADCK3 (Homo sapiens, UniProt Q8NI60)
T7 construct: gene COQ8A
Procedure, shortened: as §1

CAMKK2 = CAMKK2 (Homo sapiens, UniProt Q96RR4)
Procedure, shortened: as §1

EPHB6 = EPHB6 (Homo sapiens, UniProt O15197)
Procedure, shortened: as §1

MST1R = MST1R (Homo sapiens, UniProt Q04912)
Procedure, shortened: as §1

DDR2 = DDR2 (Homo sapiens, UniProt Q16832)
Procedure, shortened: as §1

Chain of MYO3A (Q8NEV4 whole entry): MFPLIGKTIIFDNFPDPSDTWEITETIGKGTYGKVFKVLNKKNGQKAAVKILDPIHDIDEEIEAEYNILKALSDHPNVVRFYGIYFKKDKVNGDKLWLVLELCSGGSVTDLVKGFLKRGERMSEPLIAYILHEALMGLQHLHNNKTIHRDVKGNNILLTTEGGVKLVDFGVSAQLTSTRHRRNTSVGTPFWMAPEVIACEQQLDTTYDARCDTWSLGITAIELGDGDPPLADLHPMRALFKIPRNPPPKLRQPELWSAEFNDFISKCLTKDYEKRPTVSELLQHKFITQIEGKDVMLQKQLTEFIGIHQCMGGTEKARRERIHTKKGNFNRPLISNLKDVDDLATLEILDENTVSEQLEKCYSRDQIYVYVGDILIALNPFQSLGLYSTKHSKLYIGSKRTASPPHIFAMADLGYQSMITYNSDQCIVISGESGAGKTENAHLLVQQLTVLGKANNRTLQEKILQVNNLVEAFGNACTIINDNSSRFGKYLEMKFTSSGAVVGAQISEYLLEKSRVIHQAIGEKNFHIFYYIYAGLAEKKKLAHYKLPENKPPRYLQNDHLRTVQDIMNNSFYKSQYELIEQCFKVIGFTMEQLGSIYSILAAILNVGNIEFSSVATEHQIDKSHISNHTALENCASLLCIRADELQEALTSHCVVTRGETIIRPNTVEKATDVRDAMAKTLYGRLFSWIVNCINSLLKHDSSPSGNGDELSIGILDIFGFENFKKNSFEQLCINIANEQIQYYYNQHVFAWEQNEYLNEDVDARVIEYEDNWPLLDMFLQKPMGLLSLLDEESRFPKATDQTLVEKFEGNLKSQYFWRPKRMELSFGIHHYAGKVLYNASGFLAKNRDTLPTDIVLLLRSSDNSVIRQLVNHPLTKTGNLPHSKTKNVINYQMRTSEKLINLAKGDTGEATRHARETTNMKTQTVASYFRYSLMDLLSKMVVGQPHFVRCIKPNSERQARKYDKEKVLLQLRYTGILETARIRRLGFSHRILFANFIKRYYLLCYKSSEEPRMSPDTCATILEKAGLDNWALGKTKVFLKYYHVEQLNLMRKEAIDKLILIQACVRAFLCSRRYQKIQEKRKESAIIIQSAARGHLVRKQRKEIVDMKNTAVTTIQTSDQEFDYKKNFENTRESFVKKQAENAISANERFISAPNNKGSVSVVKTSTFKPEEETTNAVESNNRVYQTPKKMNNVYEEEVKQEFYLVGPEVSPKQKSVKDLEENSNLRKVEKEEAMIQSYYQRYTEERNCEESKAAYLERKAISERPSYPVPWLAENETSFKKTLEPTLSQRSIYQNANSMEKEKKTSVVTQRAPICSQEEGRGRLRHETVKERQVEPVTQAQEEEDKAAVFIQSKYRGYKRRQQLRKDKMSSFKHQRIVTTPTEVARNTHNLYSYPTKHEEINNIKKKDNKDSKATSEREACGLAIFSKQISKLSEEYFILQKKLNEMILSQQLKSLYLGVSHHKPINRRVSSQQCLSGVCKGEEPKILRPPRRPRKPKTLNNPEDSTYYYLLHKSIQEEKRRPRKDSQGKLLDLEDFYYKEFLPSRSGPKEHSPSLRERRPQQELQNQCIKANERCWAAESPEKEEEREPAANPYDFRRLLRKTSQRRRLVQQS
Chain of AURKC (Q9UQB9 whole entry): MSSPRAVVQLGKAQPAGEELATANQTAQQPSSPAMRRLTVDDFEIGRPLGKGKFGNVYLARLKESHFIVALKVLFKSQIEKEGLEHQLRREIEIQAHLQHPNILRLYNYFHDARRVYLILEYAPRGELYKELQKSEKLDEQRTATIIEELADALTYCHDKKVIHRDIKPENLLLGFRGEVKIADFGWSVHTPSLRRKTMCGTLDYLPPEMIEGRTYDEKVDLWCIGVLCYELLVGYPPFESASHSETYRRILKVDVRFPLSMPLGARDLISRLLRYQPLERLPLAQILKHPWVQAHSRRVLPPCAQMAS
T6 sequence (O00141 whole entry): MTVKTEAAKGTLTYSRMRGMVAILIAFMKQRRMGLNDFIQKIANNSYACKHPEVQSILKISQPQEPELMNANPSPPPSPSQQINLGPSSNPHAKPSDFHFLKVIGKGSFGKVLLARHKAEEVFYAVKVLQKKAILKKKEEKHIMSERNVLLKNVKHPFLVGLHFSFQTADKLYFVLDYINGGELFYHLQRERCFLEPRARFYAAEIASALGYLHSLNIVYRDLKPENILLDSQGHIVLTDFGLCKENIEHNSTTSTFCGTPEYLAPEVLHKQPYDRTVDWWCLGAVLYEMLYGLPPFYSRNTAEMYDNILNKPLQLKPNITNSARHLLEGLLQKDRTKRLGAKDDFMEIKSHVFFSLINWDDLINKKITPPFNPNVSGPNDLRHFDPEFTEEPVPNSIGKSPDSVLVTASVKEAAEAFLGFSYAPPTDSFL
Chain of DDR2 (Q16832 whole entry): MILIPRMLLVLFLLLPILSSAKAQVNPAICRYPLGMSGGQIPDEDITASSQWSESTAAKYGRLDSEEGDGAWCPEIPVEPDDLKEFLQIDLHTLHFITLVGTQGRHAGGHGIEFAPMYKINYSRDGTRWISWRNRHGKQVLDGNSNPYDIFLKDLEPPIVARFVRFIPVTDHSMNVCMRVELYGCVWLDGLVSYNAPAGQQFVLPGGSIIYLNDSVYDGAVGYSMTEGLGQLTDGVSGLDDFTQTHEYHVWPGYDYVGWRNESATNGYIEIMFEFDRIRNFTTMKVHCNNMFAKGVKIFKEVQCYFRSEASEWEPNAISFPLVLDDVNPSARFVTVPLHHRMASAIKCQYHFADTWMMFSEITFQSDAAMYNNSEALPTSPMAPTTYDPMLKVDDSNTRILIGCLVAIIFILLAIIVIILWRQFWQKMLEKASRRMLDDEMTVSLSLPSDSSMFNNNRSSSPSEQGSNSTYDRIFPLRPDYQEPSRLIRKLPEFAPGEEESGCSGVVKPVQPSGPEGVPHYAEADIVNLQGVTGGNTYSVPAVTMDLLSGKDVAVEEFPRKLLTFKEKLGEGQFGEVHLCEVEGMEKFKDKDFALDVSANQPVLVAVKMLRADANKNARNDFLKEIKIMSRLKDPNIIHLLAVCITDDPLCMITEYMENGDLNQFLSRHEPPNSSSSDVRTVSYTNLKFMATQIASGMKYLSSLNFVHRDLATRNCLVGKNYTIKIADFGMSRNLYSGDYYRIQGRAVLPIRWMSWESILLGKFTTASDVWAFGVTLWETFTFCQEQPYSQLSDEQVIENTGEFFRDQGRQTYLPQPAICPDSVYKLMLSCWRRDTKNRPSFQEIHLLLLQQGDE
Chain of KIT(L576P) (P10721 whole entry L576P): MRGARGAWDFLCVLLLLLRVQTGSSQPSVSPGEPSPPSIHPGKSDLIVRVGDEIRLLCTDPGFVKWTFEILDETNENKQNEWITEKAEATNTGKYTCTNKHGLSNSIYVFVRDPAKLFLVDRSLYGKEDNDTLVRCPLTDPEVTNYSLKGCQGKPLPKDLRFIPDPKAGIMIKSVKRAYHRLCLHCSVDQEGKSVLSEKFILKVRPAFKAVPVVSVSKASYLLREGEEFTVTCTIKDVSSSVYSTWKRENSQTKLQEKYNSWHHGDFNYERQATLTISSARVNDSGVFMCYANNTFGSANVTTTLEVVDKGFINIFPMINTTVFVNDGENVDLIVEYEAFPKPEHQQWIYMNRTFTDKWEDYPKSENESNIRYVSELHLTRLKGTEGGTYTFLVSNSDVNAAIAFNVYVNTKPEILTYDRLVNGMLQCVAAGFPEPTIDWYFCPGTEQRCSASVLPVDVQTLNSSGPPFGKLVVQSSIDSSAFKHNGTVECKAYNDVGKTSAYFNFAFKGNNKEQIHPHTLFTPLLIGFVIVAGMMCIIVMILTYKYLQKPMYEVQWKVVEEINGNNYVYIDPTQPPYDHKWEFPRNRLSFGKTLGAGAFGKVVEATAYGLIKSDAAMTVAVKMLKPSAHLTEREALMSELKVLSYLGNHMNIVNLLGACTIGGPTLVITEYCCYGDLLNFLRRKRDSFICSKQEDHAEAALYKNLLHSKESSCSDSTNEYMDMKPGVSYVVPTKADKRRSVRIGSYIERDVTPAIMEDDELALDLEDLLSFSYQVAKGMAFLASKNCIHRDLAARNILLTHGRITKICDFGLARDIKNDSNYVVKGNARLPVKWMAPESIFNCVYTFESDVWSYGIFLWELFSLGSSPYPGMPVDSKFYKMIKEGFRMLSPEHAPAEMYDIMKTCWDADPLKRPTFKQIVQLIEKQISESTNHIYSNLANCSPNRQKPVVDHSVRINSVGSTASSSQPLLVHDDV
T7 sequence (Q8NI60 whole entry): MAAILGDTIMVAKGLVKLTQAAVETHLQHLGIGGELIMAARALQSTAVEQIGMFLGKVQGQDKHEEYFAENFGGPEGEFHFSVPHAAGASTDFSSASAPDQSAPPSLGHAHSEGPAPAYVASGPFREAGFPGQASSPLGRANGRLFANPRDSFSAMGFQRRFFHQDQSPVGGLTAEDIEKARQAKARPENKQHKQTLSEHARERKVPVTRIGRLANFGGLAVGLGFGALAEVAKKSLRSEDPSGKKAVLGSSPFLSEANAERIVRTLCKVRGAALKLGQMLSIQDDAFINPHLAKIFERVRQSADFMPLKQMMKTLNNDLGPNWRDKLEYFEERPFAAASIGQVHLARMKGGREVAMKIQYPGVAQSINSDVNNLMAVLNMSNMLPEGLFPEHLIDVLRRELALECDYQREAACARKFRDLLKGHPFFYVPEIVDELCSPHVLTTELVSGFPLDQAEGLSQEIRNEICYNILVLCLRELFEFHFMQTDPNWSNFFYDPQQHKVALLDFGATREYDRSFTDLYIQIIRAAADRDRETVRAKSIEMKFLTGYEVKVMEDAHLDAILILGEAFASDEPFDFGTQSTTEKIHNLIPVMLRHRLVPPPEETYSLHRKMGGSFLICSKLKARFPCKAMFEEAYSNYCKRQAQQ

C=CC(=O)Nc1cc(-n2c(=O)ccc3cnc4ccc(-n5cccn5)cc4c32)ccc1C [CHMFL-BTK-11]
remaining binding at 1 µM (FLT3(D835H)): 100% | remaining binding at 1 µM (FLT3-autoinhibited): 100% | remaining binding at 1 µM (ARK5): 100% | remaining binding at 1 µM (MYO3A): 100% | remaining binding at 1 µM (MEK1): 100% | remaining binding at 1 µM (NEK3): 87% | remaining binding at 1 µM (ERBB3): 90% | remaining binding at 1 µM (NEK1): 82% | remaining binding at 1 µM (ABL1-nonphosphorylated): 74% | remaining binding at 1 µM (PKAC-alpha): 98% | remaining binding at 1 µM (BRSK2): 86% | remaining binding at 1 µM (PAK7): 100% | remaining binding at 1 µM (ERBB4): 91% | remaining binding at 1 µM (KIT(L576P)): 100% | remaining binding at 1 µM (MYLK4): 100% | remaining binding at 1 µM (FLT3(D835Y)): 100% | remaining binding at 1 µM (EPHB2): 89% | remaining binding at 1 µM (AURKC): 98% | remaining binding at 1 µM (MAP4K4): 97% | remaining binding at 1 µM (SGK): 65% | remaining binding at 1 µM (ADCK3): 96% | remaining binding at 1 µM (CAMKK2): 78% | remaining binding at 1 µM (EPHB6): 87% | remaining binding at 1 µM (MST1R): 98% | remaining binding at 1 µM (DDR2): 99%
